Columns and labels:
[1] = test system: cats; assay: Cat feeding test (2-bottle choice test); assay type: in vivo; settings: 0.15 mM L-ornithine hydrochloride in water vs plain water; 24 cats; 36 hours testing time
Method: Cats were allowed access to water containing 0.15 mM L-ornithine hydrochloride and to plain water. The methodology used a 2-bottle choice test with 24 cats (the final number of cats for each test can vary due to data being discarded by spillage, etc.). Cats were housed individually during trial periods and had free access to water available between testing periods. The test involved a choice test between the tastant/mixture at a given concentration dissolved in deionized water versus deionized water only or another tastant/mixture. Control was made for positional bias (e.g., A/B exposure 1 and B/A exposure 2) and evaporation loss. The testing time was 36 hours (i.e., 18 hours per day, allowing a two-day crossover). Following two consecutive days of each testing, cats had two consecutive days of rest. Cats were offered a dry diet as a single meal at the start of the test period for one hour, calculated to meet the individual requirements for each cat.

[2] = test system: feline GPRC6A; assay: fGPRC6A calcium assay in HEK-293 T-REx/natClytin cells (FLIPR Tetra, Fluo-4 AM fluorescence); assay type: cell-based; settings: for Activation of the fGPRC6A receptor (intracellular calcium response): ligand alone, K2.3 clone, doxycycline-induced, Fluo-4 AM read-out
Method: The HEK-293 […] cell line was stably transfected by electroporation. Briefly, 3×10^6 cells detached from 60% confluent flasks were transfected with 10 μg of DNA construct by using the Gene Pulser II electroporator (Biorad) (parameters: 300 Volts, 950 μF). […] Tetra system was used to measure fluorescence or luminescence. HEK293 cells that transiently or stably expressed the […] taste receptor, were exposed to compounds to determine whether the compounds modulated the activity of the […] receptor. In particular, […] cell line was used as recipient cell line and stable transfections were carried out using an inducible expression construct encoding for the feline GPRC6A in combination with the chimeric Ga protein Gaq[…]. Stable pools underwent a first limiting dilution (LD) and the best clones were chosen after stimulation with the reference ligand L-Arg+20 mM Mg^2+, using both a fluorescent and a luminescent read-out. Four selected first LD clones were subjected to a second round of LD; CPA was then performed in order to choose the best performing clones. On the basis of the functional data obtained at FLIPR® Tetra, the final K2.3 clone was chosen for the subsequent optimization steps. Fluorescence (Fluo-4 AM dye) was chosen as best read-out given its higher sensitivity in comparison to luminescence. In particular, cells were seeded at 7,500 cells/well and tested 48 h after seeding (Doxycycline was added at 1 μg/mL 24 h after seeding). Then, medium was removed, and cells were incubated with Fluo-4 AM dye (20 μL/well) for 1 h at 37° C. […]

SMILES | Average difference in intake versus plain water [1] | Activation of the fGPRC6A receptor (intracellular calcium response) [2] | Modulation of the response to the tested L-alpha-amino acids ([2]; 20 mM Mg2+ together with L-Arginine, L-Ornithine or L-Lysine)
Cl.NCCC[C@H](N)C(=O)O [L-ornithine, L-ornithine hydrochloride] | 15.28 g |  | 
COc1cccc([C@@H](C)NCCCc2ccccc2Cl)c1 [NPS R-568] |  | not functional | 
[Mg+2] [magnesium ion] |  | not activated | positive allosteric modulator

From patent publication US12161136B2, “Screening methods using GPRC6A taste receptors and pet food products and compositions prepared using the same” (MARS, INCORPORATED, priority 2018, dated 2024)
